SMILES strings stand for the structures. “Also recorded” adds a separate entry of the source.

In one data set the test system is human UGTs. Description: Recombinant human UGT screen: glucuronidation rates across human UGTs. The data set is classed as biochemical. The note with it: 10 μM aglycone; other UGTs at very low rates. The protocol: Recombinant human UGTs 1A1, 1A3, 1A6, 1A7, 1A8, 1A9, 1A10, 2A1, 2A2, 2A3, 2B4, 2B10, 2B7, and 2B17 were produced, as His-tagged proteins, in baculovirus-infected insect cells as previously described.[37]−[39] The relative expression level of each of these recombinant UGTs was evaluated by immunodetection, using monoclonal antibody against the His-tag, as described elsewhere.[40] A numeric value of 1.0 was given to the expression level of UGT1A8 and the relative expression level of each of the other UGTs was related to this value. Normalized activities were obtained by dividing the glucuronidation rate values by the relative expression level of the tested UGT. In addition, UGTs 1A4, 2B10, and 2B15 were purchased from Corning Life Sciences (New York) and are marked, in Figure 5, with a “C” to indicate that they are commercial enzymes. The expression levels of the UGTs in the commercial samples could not be determined, so their protein concentration was used to calculate the reaction rate.
(§1) The incubation mixtures for glucuronidation assays contained 100 mM Tris-HCl buffer pH 7.4, 2.5 mM MgCl2, 0.5 mM UDPGA, recombinant UGT, or microsomes as the enzyme source and 0–15 μM of the test aglycone substrate. When the incubation mixtures contained microsomes, alamethicin was used at a final concentration of 12.5 μg/mL, but it was not included in the recombinant enzyme assays.[43] In the first experiments three negative control samples were tested, namely (i) without the substrate 7-hydroxycoumarin derivative, (ii) without the cofactor UDPGA, or (iii) without the enzyme source. In subsequent experiments, the control samples lacked the enzyme source since it gave the highest fluorescence background. Preliminary experiments were done under different conditions than most of the later assays, namely in 2.5 mL of 100 mM phosphate buffer pH 7.4, containing 500 μg pig liver microsomes, 1.0 μM compound 6 and 0.5 mM UDPGA, at room temperature. Fluorescence spectra (excitation 200–420 nm; emission 400–600 nm) or fluorescence decrease at 390 nm excitation and 460 nm emission, were measured in these preliminary experiments, using a Shimadzu RF-5000 spectrophotofluorometer.
(§2) Most of the glucuronidation assays were carried out in 96 multiwell plate format, and incubations were carried out in 100 μL and at 37 °C, in the presence of Tris–HCl buffer pH 7.4, UDPGA, and the tested 7-hydroxycoumarin derivative, at the indicated concentrations. Fluorescence decline in the multiwell plate experiments was monitored every other minute, for 40 min, using an excitation filter at 405 nm and detection at 460 nm, in a Victor2 1420 Multilabel counter (PerkinElmer, Life Sciences, Turku, Finland). The fluorescence values were transformed into molarity using the aglycone substrates for making the respective standard curves. Slopes of the substrate concentration decrease per minute were calculated using linear regression analysis, in which the linear part of the kinetic assay indicated the glucuronidation rate. Enzyme catalyzed glucuronidation rate was calculated by subtracting the blank value from the full reaction value. The intra-assay variability of the kinetic assays was 6% when compound 6 was used as the aglycone substrate. Kinetic analyses were also performed in the same 96 multiwell plates format, with excitation filter at 405 nm and detection at 460 nm, using 6–8 different substrate concentrations per substrate and two different protein concentrations for both the wild-type and mutant UGT1A10. The higher concentrations, 13.5 mg/L for UGT1A10 and 12.0 mg/L for the UGT1A10 mutant, were used when the substrates were HFC, compounds 4 and 6, whereas the lower protein concentrations, 6.75 and 6.0 mg/L for UGT1A10 and the mutant, respectively, were used when the substrates were compounds 1, 2, 3, and 5.

A short description of data set [1]: Absorbance spectra of coumarin derivatives. The data set is classed as physicochemical. The note with it: 10 μM, 100 mM Tris–HCl pH 7.4, 10% dimethyl sulfoxide. The protocol: The absorbance spectra of 10 μM coumarin derivatives at 100 mM Tris–HCl pH 7.4 containing 10% dimethyl sulfoxide were measured using a Hitachi U-2000 Spectrophotometer (Tokyo, Japan). Excitation and emission fluorescence spectra of 0.1 μM coumarin derivatives in 100 mM Tris-HCl pH 7.4 were measured using a Shimadzu RF-5000 spectrophotofluorometer (Tokyo, Japan). The excitation spectra was from 200 to 420 at 460 nm emission and the emission spectra was from 400 to 600 at 390 nm excitation (data in Supplementary Table S1 and Figures S1 and S2). The effect of pH on fluorescence intensity was determined at 405 nm excitation and 460 nm emission, in the presence of 1.5% trichloroacetic acid, 100 mM phosphate buffers at pH 5, 6, 7, 8, and 9, or 1.6 M glycine–NaOH pH 10.4.

The nature of data set [2]: Excitation and emission fluorescence spectra of coumarin derivatives. The data set is classed as physicochemical. Also on record: dose or concentration left out as unconfirmed. The protocol:
The absorbance spectra of 10 μM coumarin derivatives at 100 mM Tris–HCl pH 7.4 containing 10% dimethyl sulfoxide were measured using a Hitachi U-2000 Spectrophotometer (Tokyo, Japan). […] The excitation spectra was from 200 to 420 at 460 nm emission and the emission spectra was from 400 to 600 at 390 nm excitation (data in Supplementary Table S1 and Figures S1 and S2). The effect of pH on fluorescence intensity was determined at 405 nm excitation and 460 nm emission, in the presence of 1.5% trichloroacetic acid, 100 mM phosphate buffers at pH 5, 6, 7, 8, and 9, or 1.6 M glycine–NaOH pH 10.4.

Data set [3] concerns human liver microsomes (HLM). Put plainly: Glucuronidation by human liver microsomes (HLM). The data set is classed as in vitro ADME. The note with it: 10 μM aglycone. The protocol:
A commercial HLM pool (cat no:452210, BD Gentest, Bedford, MA) and human intestine microsomes (HIM) pool (lot. no 1110189, XenoTech, Kansas City, KS) were purchased. Pig liver samples were prepared from untreated female pigs that were used for practicing surgical procedures at the University of Kuopio (currently: University of Eastern Finland, Kuopio campus). Other animal liver microsomes were prepared as described previously.[41] The Ethics Committee for Animal Experiments, University of Kuopio, approved these experiments.
as §1, §2

Regarding `Cc1ccc(-c2cc3ccc(O)cc3oc2=O)cc1` [Compound 5, 7-Hydroxy-3-(p-tolyl)-2H-chromen-2-one], the “Selectivity among human UGTs” value in the data set on human UGTs is “selective for UGT1A10”. Moreover, in data set [1], the Amax is on record as 347 nm and the ε abs amounted to 19500 M⁻¹ cm⁻¹. In data set [2], the “Fluorescence EMmax” value was 462 nm and the “Fluorescence EXmax” value was determined as 358 nm.
Take `CN(C)c1ccc(-c2cc3ccc(O)cc3oc2=O)cc1` [Compound 4, 7-Hydroxy-3-(4-(dimethylamino)phenyl)-2H-chromen-2-one]: the “Selectivity among human UGTs” value in the data set on human UGTs is “selective for UGT1A10”. For the same compound, in data set [3], the “Glucuronidation by HLM (in words)” value is given as “not glucuronidated by HLM at all, or only at very low rates; also recorded: very low or below the detection limit”. Also, in data set [1], the Amax stood at 370 nm and the ε abs is 22900 M⁻¹ cm⁻¹. Further, the “Fluorescence EMmax” value in data set [2] turned out to be 457 nm.

For the origin of these results see publication PMC6150735, “Molecular Docking-Based Design and Development of a Highly Selective Probe Substrate for UDP-glucuronosyltransferase 1A10” (Molecular Pharmaceutics, 2018).
